{"source": "patent US8158372B2", "about": "“Agonists of a bitter taste receptor and uses thereof” (Deutsches Institut für Ernährungsforschung Potsdam-Rehbrücke, priority 2004, dated 2012)", "key": {"hTAS2R14": {"target": "T1, hTAS2R14 (Homo sapiens, UniProt Q9NYV8)", "T1 sequence (Q9NYV8 1-317)": "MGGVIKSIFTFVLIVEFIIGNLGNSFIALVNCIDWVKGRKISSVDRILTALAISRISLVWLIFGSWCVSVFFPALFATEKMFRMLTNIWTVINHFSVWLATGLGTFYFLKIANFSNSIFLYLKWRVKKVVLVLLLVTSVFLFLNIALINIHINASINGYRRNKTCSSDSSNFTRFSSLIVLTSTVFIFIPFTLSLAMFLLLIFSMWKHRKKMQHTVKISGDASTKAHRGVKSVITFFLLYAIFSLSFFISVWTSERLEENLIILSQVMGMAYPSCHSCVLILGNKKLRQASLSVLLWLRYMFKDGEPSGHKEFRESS"}, "hTAS2R4": {"target": "T2, hTAS2R4 (Homo sapiens, UniProt Q9NYW5)", "T2 sequence (Q9NYW5 1-299)": "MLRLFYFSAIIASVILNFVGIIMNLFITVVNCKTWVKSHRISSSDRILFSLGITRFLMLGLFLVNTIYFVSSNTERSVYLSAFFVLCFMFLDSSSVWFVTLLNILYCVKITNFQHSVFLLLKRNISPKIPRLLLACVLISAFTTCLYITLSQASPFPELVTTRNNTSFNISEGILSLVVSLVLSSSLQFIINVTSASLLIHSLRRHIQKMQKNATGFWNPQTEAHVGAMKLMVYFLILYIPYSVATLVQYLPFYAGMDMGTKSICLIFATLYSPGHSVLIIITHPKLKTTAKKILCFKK", "conditions": "denatonium at high doses; Chandrashekar et al. 2000; cited from earlier work"}, "mTAS2R5": {"target": "T3, mTAS2R5 (Mus musculus, UniProt Q9JKT4)", "T3 sequence (Q9JKT4 1-300)": "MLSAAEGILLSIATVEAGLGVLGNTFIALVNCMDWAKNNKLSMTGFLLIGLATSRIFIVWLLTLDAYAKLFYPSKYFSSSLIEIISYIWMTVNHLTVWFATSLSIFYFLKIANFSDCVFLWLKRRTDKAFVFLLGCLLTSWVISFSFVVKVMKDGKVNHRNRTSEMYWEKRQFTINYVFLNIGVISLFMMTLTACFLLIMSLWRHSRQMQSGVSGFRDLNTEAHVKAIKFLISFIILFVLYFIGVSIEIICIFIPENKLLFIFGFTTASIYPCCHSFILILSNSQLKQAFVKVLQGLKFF", "conditions": "Chandrashekar et al. 2000; cited from earlier work"}, "rTAS2R9": {"target": "T4, rTAS2R9 (Rattus norvegicus, UniProt Q9JKT5)", "T4 sequence (Q9JKT5 1-309)": "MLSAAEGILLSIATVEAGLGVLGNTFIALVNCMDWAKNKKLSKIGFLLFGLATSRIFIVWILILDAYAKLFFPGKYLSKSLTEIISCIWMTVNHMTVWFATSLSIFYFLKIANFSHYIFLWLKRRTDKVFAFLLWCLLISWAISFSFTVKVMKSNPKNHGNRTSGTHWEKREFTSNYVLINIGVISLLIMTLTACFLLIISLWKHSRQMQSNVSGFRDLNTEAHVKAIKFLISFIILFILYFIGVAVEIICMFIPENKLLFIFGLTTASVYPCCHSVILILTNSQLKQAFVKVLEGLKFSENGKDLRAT", "conditions": "Bufe et al. 2002; cited from earlier work"}, "mTAS2R8": {"target": "T5, mTAS2R8 (Mus musculus, UniProt Q9JKT3)", "T5 sequence (Q9JKT3 1-297)": "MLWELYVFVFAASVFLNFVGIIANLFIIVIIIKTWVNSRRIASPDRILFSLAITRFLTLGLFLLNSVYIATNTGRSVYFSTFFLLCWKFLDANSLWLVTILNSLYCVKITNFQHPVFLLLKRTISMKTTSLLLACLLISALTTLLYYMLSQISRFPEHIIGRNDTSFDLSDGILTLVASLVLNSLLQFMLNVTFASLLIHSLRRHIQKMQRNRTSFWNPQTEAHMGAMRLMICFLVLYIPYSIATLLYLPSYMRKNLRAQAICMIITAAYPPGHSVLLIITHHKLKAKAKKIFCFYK", "conditions": "denatonium at high doses; Chandrashekar et al. 2000; cited from earlier work"}, "[1]": {"conditions": "increase of intracellular calcium (fluorescence) in hTAS2R14 transfected cells, traces only shown as drawings, Table 1 A"}}, "note": "Where a name gives a salt, the structure may show the parent alone. Read-outs that look alike come from different tables or passages of the source.", "data": [{"compound": "CN1CCCC1c1cccnc1", "note": "(single isomer, unassigned; (-)) [(−)-nicotine]", "values": [{"measurement": "response", "setting": "hTAS2R14; conc 10 μM", "result": "n.r."}]}, {"compound": "C1CCN2C[C@H]3CC(CN4CCCC[C@@H]34)[C@H]2C1", "note": "(single isomer, unassigned; (-)) [(−)-sparteine]", "values": [{"measurement": "response", "setting": "hTAS2R14", "result": "n.r."}]}, {"compound": "O=Cc1cccc2cccc(C(=O)O)c12", "note": "[1,8-naphthaldehydic acid]", "values": [{"measurement": "activation of hTAS2R14 (agonist)", "setting": "hTAS2R14; [1]", "result": "agonist"}]}, {"compound": "O=C(O)c1cccc2ccccc12", "note": "[1-naphthoic acid]", "values": [{"measurement": "activation of hTAS2R14 (agonist)", "setting": "hTAS2R14; [1]", "result": "agonist"}]}, {"compound": "O=[N+]([O-])c1cccc2ccccc12", "note": "[1-nitronaphthalene]", "values": [{"measurement": "activation of hTAS2R14 (agonist)", "setting": "hTAS2R14", "result": "agonist"}]}, {"compound": "CCCc1cc(=O)[nH]c(=S)[nH]1", "note": "[6-propyl-2-thiouracil (PROP), 6-propyl-2-thiouracil]", "values": [{"measurement": "response", "setting": "hTAS2R14; conc 100 μM", "result": "n.r."}, {"measurement": "receptor response", "setting": "hTAS2R4", "result": "to a lesser extend"}]}, {"compound": "c1ccc2c(c1)CCc1ccccc1-2", "note": "[9,10-dihydrophenanthrene]", "values": [{"measurement": "response", "setting": "hTAS2R14; conc 5 μM", "result": "n.r."}]}, {"compound": "N[C@H](Cc1ccccc1)C(=O)O", "note": "[D-phenylalanine]", "values": [{"measurement": "response", "setting": "hTAS2R14; conc 10000 μM", "result": "n.r."}]}, {"compound": "N[C@@H](Cc1ccccc1)C(=O)O", "note": "[L-phenylalanine]", "values": [{"measurement": "response", "setting": "hTAS2R14; conc 10000 μM", "result": "n.r."}]}, {"compound": "CCN(CCCc1ccccc1)CCCc1ccccc1.O=C(O)CC(O)(CC(=O)O)C(=O)O", "note": "[alverine citrate salt]", "values": [{"measurement": "response", "setting": "hTAS2R14; conc 50 μM", "result": "n.r."}]}, {"compound": "Cc1cc(=O)n(-c2ccccc2)n1C", "note": "[antipyrine]", "values": [{"measurement": "response", "setting": "hTAS2R14", "result": "n.r."}]}, {"compound": "CN1C2CCC1CC(OC(=O)C(CO)c1ccccc1)C2", "note": "(stereo not drawn) [atropine]", "values": [{"measurement": "response", "setting": "hTAS2R14", "result": "n.r."}]}, {"compound": "O=C(c1ccccc1)C(O)c1ccccc1", "note": "(stereo not drawn) [benzoin]", "values": [{"measurement": "response", "setting": "hTAS2R14", "result": "n.r."}]}, {"compound": "O=C(O)/C=C/c1ccc(O)c(O)c1", "note": "[caffeic acid]", "values": [{"measurement": "response", "setting": "hTAS2R14; conc 30 μM", "result": "n.r."}]}, {"compound": "Cn1c(=O)c2c(ncn2C)n(C)c1=O", "note": "[caffeine]", "values": [{"measurement": "response", "setting": "hTAS2R14; conc 3000 μM", "result": "n.r."}]}, {"compound": "CCCC(C)(COC(N)=O)COC(=O)NC(C)C", "note": "(stereo not drawn) [carisoprodol]", "values": [{"measurement": "response", "setting": "hTAS2R14", "result": "n.r."}]}, {"compound": "O=C(N[C@H](CO)[C@H](O)c1ccc([N+](=O)[O-])cc1)C(Cl)Cl", "note": "[chloramphenicol]", "values": [{"measurement": "response", "setting": "hTAS2R14; conc 30 μM", "result": "n.r."}]}, {"compound": "COc1cc2c(c(OC)c1OC)-c1ccc(OC)c(=O)cc1[C@@H](NC(C)=O)CC2", "note": "[colchicine]", "values": [{"measurement": "response", "setting": "hTAS2R14", "result": "n.r."}]}, {"compound": "O=C([O-])c1cc(=O)c2c(OCC(O)COc3cccc4oc(C(=O)[O-])cc(=O)c34)cccc2o1.[Na+].[Na+]", "note": "[cromolyn sodium salt]", "values": [{"measurement": "response", "setting": "hTAS2R14; conc 5000 μM", "result": "n.r."}]}, {"compound": "C[C@@H]1C[C@@H]([C@H](O)CC2CC(=O)NC(=O)C2)C(=O)[C@@H](C)C1", "note": "[cycloheximide]", "values": [{"measurement": "response", "setting": "hTAS2R14", "result": "n.r."}, {"measurement": "receptor response", "setting": "mTAS2R5", "result": "respond"}, {"measurement": "receptor response", "setting": "rTAS2R9", "result": "respond"}]}, {"compound": "CC[N+](CC)(CC(=O)Nc1c(C)cccc1C)Cc1ccccc1", "note": "[denatonium]", "values": [{"measurement": "receptor response", "setting": "mTAS2R8", "result": "respond"}, {"measurement": "receptor response", "setting": "hTAS2R4", "result": "respond"}]}, {"compound": "CC(=O)OC1C[C@H]2[C@H](C)C(=O)O[C@@H]2/C=C(\\C)CC/C=C/1C", "note": "(stereo partly drawn) [herbolide A]", "values": [{"measurement": "activation of hTAS2R14 (agonist)", "setting": "hTAS2R14; [1]", "result": "agonist"}]}, {"compound": "C=C1C(OC(C)=O)CC/C(C)=C/[C@H]2OC(=O)[C@@H](C)[C@@H]2CC1OC(C)=O", "note": "(stereo partly drawn) [herbolide D acetate]", "values": [{"measurement": "activation of hTAS2R14 (agonist)", "setting": "hTAS2R14; [1]", "result": "agonist"}]}, {"compound": "C=C1C(=O)OC2C3O[C@]3(C)CC/C=C(\\C)CC(O)[C@@H]12", "note": "(stereo partly drawn) [hydroxy-8α-parthenolide]", "values": [{"measurement": "activation of hTAS2R14 (agonist)", "setting": "hTAS2R14; [1]", "result": "agonist"}]}, {"compound": "C=C1C(=O)O[C@H]2[C@H]1CC/C(C)=C/CC[C@@]1(C)O[C@@H]21", "note": "[parthenolide]", "values": [{"measurement": "activation of hTAS2R14 (agonist)", "setting": "hTAS2R14; [1]", "result": "agonist"}]}, {"compound": "NC(=S)Nc1ccccc1", "note": "[phenylthiocarbamide (PTC), phenylthiocarbamide]", "values": [{"measurement": "response", "setting": "hTAS2R14", "result": "n.r."}]}, {"compound": "CC(C)(O)[C@@H]1[C@H]2OC(=O)[C@@H]1[C@]1(O)C[C@H]3O[C@]34C(=O)O[C@H]2[C@]14C", "note": "[picrotin]", "values": [{"measurement": "activation of hTAS2R14 (agonist)", "setting": "hTAS2R14", "result": "agonist"}]}, {"compound": "C=C(C)[C@@H]1[C@H]2OC(=O)[C@@H]1[C@]1(O)C[C@H]3O[C@]34C(=O)O[C@H]2[C@]14C", "note": "[picrotoxinin]", "values": [{"measurement": "activation of hTAS2R14 (agonist)", "setting": "hTAS2R14", "result": "agonist"}]}, {"compound": "O=C(O)c1ccc2c(c1)OCO2", "note": "[piperonylic acid]", "values": [{"measurement": "activation of hTAS2R14 (agonist)", "setting": "hTAS2R14", "result": "agonist"}]}, {"compound": "CC1CCC2[C@@H]1C1CC(O)[C@H](C)C1CC[C@@]2(C)O", "note": "(stereo partly drawn) [pseudo-artabsine]", "values": [{"measurement": "activation of hTAS2R14 (agonist)", "setting": "hTAS2R14; [1]", "result": "agonist"}]}, {"compound": "C=C[C@H]1CN2CC[C@H]1C[C@H]2[C@H](O)c1ccnc2ccc(OC)cc12", "note": "[quinine sulfate dihydrate]", "values": [{"measurement": "response", "setting": "hTAS2R14; conc 50 μM", "result": "n.r."}]}, {"compound": "O=C([O-])c1ccccc1.[Na+]", "note": "[sodium benzoate]", "values": [{"measurement": "activation of hTAS2R14 (agonist)", "setting": "hTAS2R14", "result": "agonist"}]}, {"compound": "(−)-α-thujone", "values": [{"measurement": "activation of hTAS2R14 (agonist)", "setting": "hTAS2R14", "result": "agonist"}]}, {"compound": "ouabain", "values": [{"measurement": "response", "setting": "hTAS2R14", "result": "n.r."}]}, {"compound": "strychnine nitrate", "values": [{"measurement": "response", "setting": "hTAS2R14", "result": "n.r."}]}]}
